Source: patent US7332495B2 (priority 2002, dated 2008)
Read-outs that look alike come from different tables or passages of the source.

What was measured:
rats [1] = test: Spontaneous withdrawal tests (body weight); type: in vivo; conditions: for Weight after withdrawal compared with weight one day before withdrawal: IV-12-2 100 mg/kg; for Increase (%) of weight / Weight: IV-12-2 (75 mg/kg)
rat [2] = test: animal or person; conditions: for responders at 20 mg/kg: ip
Method: Using 55° C. hot plate pain threshold detector (available from Ninghai Baishi Electronic Medical Instrument Co., Zheijiang, China) the threshold change before and after administration of a pharmaceutical composition of the present invention is tested. […] hind paw was scrubbed with alcohol cotton ball before the experiment. The regular pain threshold was tested twice for each rat, the induced hind paw licking time being recorded as the pain threshold. Measurements were made at 20-30 minute intervals. Only rats with stable pain reaction were used in the pharmaceutical test.
(§1) Two species of animals (mice and rats) and four types of pain testing models (i.p. 0.7% acetic acid, s.c. 5% formalin, hot plate 55° C., focused radiant heat) were used.

rat [3] = test: Rat 5% formalin paw s.c.; type: in vivo; conditions: p.o., read-out: Analgesia ED50
Method: as §1

rats [4] = test: Spontaneous withdrawal tests (body weight); type: in vivo
Method: 96 mice were divided into 4 groups (24 for each group, ? fifty-fifty), and Morphine, IV-12-1, IV-12-2, warm boiled water were administered respectively, using progressive dose increase for 7 days (i.g.) and 2 times per day. The weight of the rats after drug withdrawal was compared with the weight one day before drug withdrawal at a corresponding time (See Table 9 and 10).

Nc1ccc(CN2CCN(CC(=O)c3ccccc3)CC2)cc1 [IV-12, N^1-(4-aminobenzyl)-N^4-phenacyl piperazine]
Weight after withdrawal compared with weight one day before withdrawal (rats [1]; 18 h after withdrawal): 0.99 ± 0.04
Weight after withdrawal compared with weight one day before withdrawal (rats [1]; 42 h after withdrawal): 1.00 ± 0.04
Weight after withdrawal compared with weight one day before withdrawal (rats [1]; 66 h after withdrawal): 1.00 ± 0.05
Weight after withdrawal compared with weight one day before withdrawal (rats [1]; 90 h after withdrawal): 1.00 ± 0.04
Weight after withdrawal compared with weight one day before withdrawal (rats [1]; 114 h after withdrawal): 1.01 ± 0.04
Weight after withdrawal compared with weight one day before withdrawal (rats [1]; 138 h after withdrawal): 1.03 ± 0.06
Weight after withdrawal compared with weight one day before withdrawal (rats [1]; 162 h after withdrawal): 1.04 ± 0.08
Increase (%) of weight (rats [1]; 12 h after withdrawal): 2.0%
Weight (rats [1]; 12 h after withdrawal): 259.8 ± 34 g
Increase (%) of weight (rats [1]; 18 h after withdrawal): 2.0%
Weight (rats [1]; 18 h after withdrawal): 259.8 ± 33 g
Increase (%) of weight (rats [1]; 24 h after withdrawal): 0.4%
Weight (rats [1]; 24 h after withdrawal): 255.9 ± 32 g
Increase (%) of weight (rats [1]; 36 h after withdrawal): 1.9%
Weight (rats [1]; 36 h after withdrawal): 259.5 ± 33 g
Increase (%) of weight (rats [1]; 42 h after withdrawal): 1.4%
Weight (rats [1]; 42 h after withdrawal): 258.5 ± 32 g
Increase (%) of weight (rats [1]; 48 h after withdrawal): 0.8%
Weight (rats [1]; 48 h after withdrawal): 256.8 ± 31 g
Weight (rats [1]; 60 h after withdrawal): 259.6 ± 31 g
Increase (%) of weight (rats [1]; 66 h after withdrawal): 0.8%
Weight (rats [1]; 66 h after withdrawal): 256.8 ± 27 g
Increase (%) of weight (rats [1]; 72 h after withdrawal): 0.4%
Weight (rats [1]; 72 h after withdrawal): 255.7 ± 29 g
Increase (%) of weight (rats [1]; 84 h after withdrawal): 3.4%
Weight (rats [1]; 84 h after withdrawal): 263.6 ± 30 g
Increase (%) of weight (rats [1]; 90 h after withdrawal): 1.3%
Weight (rats [1]; 90 h after withdrawal): 258.2 ± 30 g
Increase (%) of weight (rats [1]; 96 h after withdrawal): 0.9%
Weight (rats [1]; 96 h after withdrawal): 257.1 ± 28 g
Increase (%) of weight (rats [1]; 108 h after withdrawal): 4.5%
Weight (rats [1]; 108 h after withdrawal): 266.3 ± 33 g
Increase (%) of weight (rats [1]; 114 h after withdrawal): 2.1%
Increase (%) of weight (rats [1]; 120 h after withdrawal): 1.4%
Weight (rats [1]; 120 h after withdrawal): 258.3 ± 29 g
Weight (rats [1]; 132 h after withdrawal): 272.6 ± 35 g
Increase (%) of weight (rats [1]; 138 h after withdrawal): 4.0%
Weight (rats [1]; 138 h after withdrawal): 264.9 ± 32 g
Increase (%) of weight (rats [1]; 144 h after withdrawal): 3.5%
Weight (rats [1]; 144 h after withdrawal): 263.6 ± 32 g
Increase (%) of weight (rats [1]; 156 h after withdrawal): 6.6%
Weight (rats [1]; 156 h after withdrawal): 271.5 ± 40 g
Increase (%) of weight (rats [1]; 162 h after withdrawal): 4.9%
Weight (rats [1]; 162 h after withdrawal): 267.2 ± 38 g
Increase (%) of weight (rats [1]; 168 h after withdrawal): 4.5%
Weight (rats [1]; 168 h after withdrawal): 266.3 ± 36 g
Weight (rats [1]; before withdraw): 254.8 ± 32 g
Increase (hot plate) (%) (rat [2]; 20 mg/kg, Table 5 summary): 100%
responders at 20 mg/kg (rat [2]; Rattus norvegicus, read-out: Analgesic ratio (Increase by 100%)): 100%
responders at 20 mg/kg (rat [2]; Rattus norvegicus, read-out: Analgesic ratio (More than 60 seconds)): 80%
ED50 (rat [2]; Rattus norvegicus, po, read-out: Analgesia ED50): 52.4 mg/kg
ED50 (rat [3]): 102 mg/kg
Weight after withdrawal compared with weight one day before withdrawal (rats [4]; IV-12-1 75 mg/kg, 138 h after withdrawal): 1.08 ± 0.06
Increase (%) of weight (rats [4]; IV-12-1 (75 mg/kg), 18 h after withdrawal): 3.9%
Increase (%) of weight (rats [4]; IV-12-1 (75 mg/kg), 36 h after withdrawal): 5.3%
Weight (rats [4]; IV-12-1 (75 mg/kg), 60 h after withdrawal): 258.5 ± 38 g
Weight (rats [4]; IV-12-1 (75 mg/kg), 72 h after withdrawal): 251.6 ± 36 g
Weight after withdrawal compared with weight one day before withdrawal (rats [4]; IV-12-2 100 mg/kg, 18 h after withdrawal): 1.01 ± 0.04
Increase (%) of weight (rats [4]; IV-12-2 (75 mg/kg), 60 h after withdrawal): 1.9%
Weight (rats [4]; IV-12-2 (75 mg/kg), 114 h after withdrawal): 260.1 ± 30 g
Increase (%) of weight (rats [4]; IV-12-2 (75 mg/kg), 132 h after withdrawal): 7.0%
Weight after drug withdrawal (in words) (rats [4]; groups IV-12-1 and IV-12-2): did not decrease
